# Data as given in article PMC9354243, “The Role of Tryptophan in π Interactions in Proteins: An Experimental Approach” (Journal of the American Chemical Society, 2022).
# System: LmrR variants
# Assay: SPR of the LmrR-Dau interaction at 10 and 25 °C, all LmrR variants
# Assay type: binding, Lactococcus lactis
# Procedure: The thermodynamics of the LmrR–Dau interaction was recently reported to be mostly entropy driven.[21] To investigate this point in more detail the temperature dependence of the LmrR–Dau interaction was studied by surface plasmon resonance (SPR) experiments at 10 and 25 °C. […] The average ΔΔG from 6 LmrR variants is around 0.1 kJ/mol. These values imply that the temperature effects on the ΔGs are negligible, which would be in line with a low contribution of entropic factors to the Dau–LmrR interaction.
# RibU. […]
# MALDI-TOF. […] Spots were measured using a Voyager DE-PRO MALDI-TOF (time of flight) instrument (Applied Biosystems). The incorporation efficiency of Trp analog was calculated after measuring the peak areas of the peptide conta ining either Trp or Trp analog.
# Binding assays - surface plasmon resonance (SPR). LmrR and mutants were immobilized on a CM5 sensor chip and binding of drugs was monitored using a BIACORE3000 system. The binding responses of Dau and RBF to LmrR were measured in triplicate at both 25 °C and 10 °C, in HBS-EP running buffer (10 mM HEPES, pH 7.4, 150 mM NaCl, 50 µM EDTA, and 0.005% surfactant P-20). The binding responses were corrected by subtracting the response measured in the control lane, to which a […]
compound,measurement,setting,value
"COc1cccc2c1C(=O)c1c(O)c3c(c(O)c1C2=O)C[C@@](O)(C(C)=O)C[C@@H]3O[C@H]1C[C@H](N)[C@H](O)[C@H](C)O1 [Dau, Daunomycin]",Fold increase of binding affinity at lower temperature,"10 °C versus 25 °C, all LmrR variants",1.4–3.5 fold
same,Average ΔΔG (ΔG10 °C – ΔG25 °C),average from 6 LmrR variants,around 0.1 kJ/mol
